Test results published in BigSolDB 2.1.

Cc1nc(CCl)nc2ccccc12
solubility (mole fraction)
Details	in THF	in acetone	in acetonitrile	in cyclohexane	in ethanol	in ethyl acetate	in isopropanol	in n-butanol	in n-hexane	in n-propanol
281.15 K	0.229	0.107	0.0488	0.0193	0.061	0.105	0.0429	0.05	0.00825	0.134
286.15 K	0.264	0.142	0.0692	0.0266	0.0771	0.136	0.0569	0.063	0.0115	0.145
291.15 K	0.297	0.188	0.096	0.0361	0.0969	0.173	0.0748	0.081	0.0146	0.158
296.15 K	0.339	0.244	0.13	0.0484	0.123	0.217	0.0964	0.101	0.019	0.172
301.15 K	0.374	0.297	0.174	0.0639	0.152	0.266	0.123	0.125	0.0232	0.186
306.15 K	0.411	0.373	0.22	0.0832	0.183	0.32	0.156	0.153	0.0289	0.201
311.15 K	0.452	0.449	0.276	0.107	0.219	0.378	0.196	0.186	0.0372	0.217
316.15 K	0.492	0.531	0.34	0.135	0.257	0.44	0.245	0.225	0.0476	0.234
321.15 K	0.528	0.603	0.411	0.168	0.297	0.503	0.304	0.27	0.0598	0.253
326.15 K	0.563	0.676	0.488	0.207	0.337	0.567	0.394	0.319	0.0751	0.273
331.15 K	0.604	0.74	0.559	0.249	0.389	0.63	0.467	0.361	0.093	0.294
